# From patent US20220354811A1, “METHODS AND COMPOSITIONS FOR MODULATING MACROPHAGES POLARIZATION” (INSERM (INSTITUT NATIONAL DE LA SANTÉ ET DE LA RECHERCHE …, priority 2019, published 2022)
# Residues, ends and D or L forms follow the SMILES beside them. *: point of attachment. Cbz = O=C(OCc1ccccc1)*; CH2F = FC*
# What was measured:
# caspase-8 = caspase-8 (Homo sapiens, UniProt Q14790); assay: Recombinant caspase-8 activity in vitro (Ac-IETD-AMC substrate); assay type: biochemical; design: using active recombinant proteins of caspase-8 and caspase-3; purchased Enzo life sciences ALX-201-062; conditions: recombinant caspase-8, Ac-IETD-AMC
# From the text: FIG. 4. […] (A) Measures of caspase-8 activity (IETD-AMC). IETD-CHO treatment is used as positive control in the in vitro assay. The results are expressed as A.U./min and represent the mean of 3 independent experiments realized in duplicate (B) Measures of caspase-3 activity (DEVD-AMC). DEVD-CHO is used as positive control in the in vitro assay. The results are expressed as A.U./min and represent the mean of 3 independent experiments realized in duplicate. Human CSF-1 was purchased from Miltenyi (130-096-493). […] Mouse caspase-8 was from R&D Systems (AF705). HRP-conjugated rabbit anti-goat was purchased from Dako ([…]) and HRP-conjugated goat anti-rabbit was from Cell Signaling (5127). Active recombinant caspase-8 (ALX-201-062) and -3 (ALX-201-059) were from Enzo life sciences. […] Each assay (in triplicate) was performed with 10 μg of protein prepared from control or stimulated cells. […] Enzyme activities were expressed in arbitrary units (A.U.) per min and per mg of proteins. The same protocol was used with 0.25 units of active recombinant caspase-8 (Enzo, ALX-201-062) or -3 (Enzo, ALX-201-059) in each triplicate.
# human primary monocytes = conditions: literature (Jacquel et al., Blood 2009, Sci Reports 2018); cited from earlier work
# Sequence of caspase-8 (Q14790 217-374 limits assumed): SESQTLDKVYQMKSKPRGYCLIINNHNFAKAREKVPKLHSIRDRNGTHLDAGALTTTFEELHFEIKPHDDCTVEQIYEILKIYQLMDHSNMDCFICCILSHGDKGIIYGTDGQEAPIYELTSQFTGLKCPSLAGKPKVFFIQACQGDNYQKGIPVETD
# Sequence of caspase-8 (Q14790 385-479 limits assumed): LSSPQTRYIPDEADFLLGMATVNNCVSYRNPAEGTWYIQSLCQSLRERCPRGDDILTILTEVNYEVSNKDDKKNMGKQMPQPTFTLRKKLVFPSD
SMILES,IC50 (caspase-8),effect on CSF-1-induced monocyte differentiation (human primary monocytes)
CC[C@H](C)[C@H](NC(C)=O)C(=O)N[C@@H](CCC(=O)O)C(=O)N[C@H](C(=O)N[C@H](C=O)CC(=O)O)[C@@H](C)O [Ac-IETD-CHO] (Ac-IETD-aldehyde),15 nM,
COC(=O)C[C@H](NC(=O)[C@H](C)NC(=O)[C@@H](NC(=O)OCc1ccccc1)C(C)C)C(=O)CF [z-VAD-fmk] (Cbz-Val-Ala-Asp(OMe)-CH2F),,inhibits
